The values that follow are results of earlier work, collected in patent US20050281872A1, “Enhanced compliance antiviral medicaments and methods of manufacture and use” (priority 2004, published 2005).

The conditions of series [1]: ribavirin powder.
For series [2] the following is noted: patients receiving ribavirin antiviral therapy.
For series [3] the following is noted: taking antacids containing magnesium, aluminum, and simethicone.

Consider `NC(=O)c1ncn([C@@H]2O[C@H](CO)[C@@H](O)[C@H]2O)n1` [ribavirin], for which the “dissolution time in water” value in series [1] is listed as “almost instantaneous”. In addition, the “patients requiring a reduction in dose or discontinuation of therapy because of side effects” value in series [2] is “up to 20%”. The solubility in alcohol result (alcohol) is listed as “only sparingly soluble”. In addition, for the setting “water”, the solubility in water result is “freely soluble”. For the same compound, the “decrease in available ribavirin” value in series [3] is reported as 14%. Besides, in the series on hepatitis C virus (HCV) (ribavirin alone, without interferon), the “effectiveness in treating hepatitis C” value was “not effective”.
Regarding interferon, the “patients who responded positively” value with hepatitis C virus (HCV) (high dose of interferon for six months) is listed as “nearly half”.
